The test system of one series is HIV-1. Kind of series: Anti-HIV-1 assay in activated primary human PBM cells. Type of series: cell-based, human immunodeficiency virus type 1. To be noted: for EC50: read-out: Anti-HIV-1 activity in human PBM cells EC50.
Series [1] is described as follows: Cytotoxic assay, primary human PBM cells. Type of series: cell-based. Conditions: human, primary human PBM cells.
The next series has as its system primary human PBM cells. Put plainly: Cytotoxic assay, primary human PBM cells. The format is cell-based. To be noted: primary human PBM cells (lymphocytes).
A short description of series [2]: Cytotoxic assay, VERO cells. The format is cell-based. To be noted: African green monkey.
Another series deals with VERO cells. Kind of series: Cytotoxic assay, VERO cells. The format is cell-based.
A short description of another series: in vitro. To be noted: human, CEM cells.

With `CC(=NNC(=O)CN1c2c(-c3ccccc3)n[nH]c2-c2ccccc2S1(=O)=O)c1cccs1` [5a, 2-(5,5-Dioxido-3-phenylbenzo[e]pyrazolo[4,3-c][1,2]thiazin-4(1H)-yl)-N′-(1-(thiophen-2-yl)ethylidene)acetohydrazide], in the series on HIV-1, the 50% effective concentration (EC50) turned out to be 11.2 µM. For the same compound, the results for the 50% inhibitory concentration (IC50) at 5 day (in series [1]; in series [2]; in “in vitro”) were 88 µM, 77.2 µM and 23.3 µM, respectively. For the same compound, in the series on primary human PBM cells, the “toxicity in primary human PBM cells (in words)” value is on record as “no toxicity”. Besides, the “toxicity in VERO cells (in words)” value in the series with VERO cells is “no toxicity”.
`CC(=NNC(=O)CN1c2c(-c3ccccc3)n[nH]c2-c2ccccc2S1(=O)=O)c1sccc1C` [5b, 2-(5,5-Dioxido-3-phenylbenzo[e]pyrazolo[4,3-c][1,2]thiazin-4(1H)-yl)-N′-(1-(3-methylthiophen-2-yl)ethylidene)acetohydrazide]: the 50% effective concentration (EC50) in the series on HIV-1 stood at 11.6 µM. For the same compound, the IC50 at 5 day in series [1] stood at 56.2 µM; in series [2], 75.3 µM; in “in vitro”, 13.1 µM.
As to `CC(=NNC(=O)CN1c2c(-c3ccccc3)n[nH]c2-c2ccccc2S1(=O)=O)c1ccsc1` [5c, 2-(5,5-Dioxido-3-phenylbenzo[e]pyrazolo[4,3-c][1,2]thiazin-4(1H)-yl)-N′-(1-(thiophen-3-yl)ethylidene)acetohydrazide], the concentration for half-maximal inhibition (IC50) at 5 day worked out at 73.2 µM in series [1], 78.7 µM in series [2] and 10.7 µM in “in vitro”. The “toxicity in primary human PBM cells (in words)” value in the series on primary human PBM cells was “no toxicity”. Further, in the series on VERO cells, the “toxicity in VERO cells (in words)” value is given as “no toxicity”.
As for `CC(=NNC(=O)CN1c2c(-c3ccccc3)n[nH]c2-c2ccccc2S1(=O)=O)c1cc(C)sc1C` [5d, N′-(1-(2,5-dimethylthiophen-3-yl)ethylidene)-2-(5,5-dioxido-3-phenylbenzo[e]pyrazolo[4,3-c][1,2]thiazin-4(1H)-yl)acetohydrazide], the IC50 at 5 day in series [1] turned out to be 36.5 µM; in series [2], 44.4 µM; in “in vitro”, 17.6 µM.
As to `CC(=NNC(=O)CN1c2c(-c3ccccc3)n[nH]c2-c2ccccc2S1(=O)=O)c1sccc1Cl` [5e, N′-(1-(3-chlorothiophen-2-yl)ethylidene)-2-(5,5-dioxido-3-phenylbenzo[e]pyrazolo[4,3-c][1,2]thiazin-4(1H)-yl)acetohydrazide], the 50% inhibitory concentration (IC50) at 5 day was 69.1 µM in series [1], greater than 100 µM in series [2] and 16.8 µM in “in vitro”. Further, the “toxicity in primary human PBM cells (in words)” value with primary human PBM cells is given as “non-toxic”. Also, the “toxicity in VERO cells (in words)” value in the series with VERO cells is on record as “non-toxic”.
Turning to `CC(=NNC(=O)CN1c2c(-c3ccccc3)n[nH]c2-c2ccccc2S1(=O)=O)c1sccc1Br` [5f, N′-(1-(3-bromothiophen-2-yl)ethylidene)-2-(5,5-dioxido-3-phenylbenzo[e]pyrazolo[4,3-c][1,2]thiazin-4(1H)-yl)acetohydrazide], the IC50 at 5 day was 42.8 µM in series [1], greater than 100 µM in series [2] and 19.6 µM in the series “in vitro”.
The corresponding values for `CC(=NNC(=O)CN1c2c(-c3ccccc3)n[nH]c2-c2ccccc2S1(=O)=O)c1ccc(Cl)s1` [5g, N′-(1-(5-chlorothiophen-2-yl)ethylidene)-2-(5,5-dioxido-3-phenylbenzo[e]pyrazolo[4,3-c][1,2]thiazin-4(1H)-yl)acetohydrazide] are 13.9 µM, 57.4 µM and 8.4 µM.
With `CC(=NNC(=O)CN1c2c(-c3ccccc3)n[nH]c2-c2ccccc2S1(=O)=O)c1cc(C)cs1` [5j, 2-(5,5-Dioxido-3-phenylbenzo[e]pyrazolo[4,3-c][1,2]thiazin-4(1H)-yl)-N′-(1-(4-methylthiophen-2-yl)ethylidene)acetohydrazide], the half-maximal effective concentration (EC50) in the series on HIV-1 was 13.3 µM. Moreover, the IC50 at 5 day was greater than 100 µM in series [1], 6 µM in series [2] and 18.3 µM in “in vitro”.
Consider `CC(=NNC(=O)CN1c2c(-c3ccccc3)n[nH]c2-c2ccccc2S1(=O)=O)c1cc2ccccc2oc1=O` [5k, 2-(5,5-Dioxido-3-phenylbenzo[e]pyrazolo[4,3-c][1,2]thiazin-4(1H)-yl)-N′-(1-(2-oxo-2H-chromen-3-yl)ethylidene)acetohydrazide], for which the IC50 at 5 day in series [1] was 82.7 µM; in series [2], greater than 100 µM; in “in vitro”, 27.8 µM. Moreover, in the series on primary human PBM cells, the “toxicity in primary human PBM cells (in words)” value was “non-toxic”. The “toxicity in VERO cells (in words)” value with VERO cells was “non-toxic”.
For the compound `CC(=NNC(=O)CN1c2c(-c3ccccc3)n[nH]c2-c2ccccc2S1(=O)=O)c1ccc2ccccc2c1` [5l, 2-(5,5-Dioxido-3-phenylbenzo[e]pyrazolo[4,3-c][1,2]thiazin-4(1H)-yl)-N′-(1-(naphthalen-2-yl)ethylidene)acetohydrazide], the half-inhibitory concentration (IC50) at 5 day is 12.2 µM in series [1], less than 1 µM in series [2] and 24.2 µM in “in vitro”.
`CC(=NNC(=O)CN1c2c(-c3ccccc3)n[nH]c2-c2ccccc2S1(=O)=O)c1ccc(C)s1` [5m, 2-(5,5-Dioxido-3-phenylbenzo[e]pyrazolo[4,3-c][1,2]thiazin-4(1H)-yl)-N′-(1-(5-methylthiophen-2-yl)ethylidene)acetohydrazide]: the IC50 at 5 day in series [1] was 62.3 µM; in series [2], 30.6 µM; in the series “in vitro”, 13.8 µM.
In the case of `CC(=NNC(=O)CN1c2c(-c3ccccc3)n[nH]c2-c2ccccc2S1(=O)=O)c1cc2ccccc2o1` [5n, N′-(1-(benzofuran-2-yl)ethylidene)-2-(5,5-dioxido-3-phenylbenzo[e]pyrazolo[4,3-c][1,2]thiazin-4(1H)-yl)acetohydrazide], the “anti-HIV-1 activity (in words)” value in the series on HIV-1 was “inactive”. Moreover, the concentration for half-maximal inhibition (IC50) at 5 day in series [1] is greater than 100 µM; in series [2], 23 µM; in the series “in vitro” it was 22.4 µM.
In the case of `CC(=NNC(=O)CN1c2c(-c3ccccc3)n[nH]c2-c2ccccc2S1(=O)=O)c1ccc[nH]1` [5o, N′-(1-(1H-pyrrol-2-yl)ethylidene)-2-(5,5-dioxido-3-phenylbenzo[e]pyrazolo[4,3-c][1,2]thiazin-4(1H)-yl)acetohydrazide], the IC50 at 5 day is 41.4 µM in series [1], 22.3 µM in series [2] and 20 µM in “in vitro”.
For `CC(=NNC(=O)CN1c2c(-c3ccccc3)n[nH]c2-c2ccccc2S1(=O)=O)c1ccc(Br)s1` [5p, N′-(1-(5-bromothiophen-2-yl)ethylidene)-2-(5,5-dioxido-3-phenylbenzo[e]pyrazolo[4,3-c][1,2]thiazin-4(1H)-yl)acetohydrazide] the same measures were 10.5 µM, 18.1 µM and less than 1 µM.
As for `CC(=NNC(=O)CN1c2c(-c3ccccc3)n[nH]c2-c2ccccc2S1(=O)=O)c1ccc2c(c1)OCCO2` [5q, N′-(1-(2,3-dihydrobenzo[b][1,4]dioxin-6-yl)ethylidene)-2-(5,5-dioxido-3-phenylbenzo[e]pyrazolo[4,3-c][1,2]thiazin-4(1H)-yl)acetohydrazide], the figures for the IC50 at 5 day (in series [1]; in series [2]; in the series “in vitro”) were 67.1 µM, greater than 100 µM and 23.9 µM, respectively. Besides, the “toxicity in primary human PBM cells (in words)” value in the series on primary human PBM cells is “non-toxic”. The “toxicity in VERO cells (in words)” value in the series on VERO cells is reported as “non-toxic”.
Turning to `CC(=NNC(=O)CN1c2c(-c3ccccc3)n[nH]c2-c2ccccc2S1(=O)=O)c1ccc([N+](=O)[O-])s1` [5r, 2-(5,5-Dioxido-3-phenylbenzo[e]pyrazolo[4,3-c][1,2]thiazin-4(1H)-yl)-N′-(1-(5-nitrothiophen-2-yl)ethylidene)acetohydrazide], the values for the IC50 at 5 day (in series [1]; in series [2]; in the series “in vitro”) were 85 µM, 43.6 µM and 5 µM, respectively.
Take `CC(=NNC(=O)CN1c2c(-c3ccccc3)n[nH]c2-c2ccccc2S1(=O)=O)c1ccc(C)o1` [5s, 2-(5,5-Dioxido-3-phenylbenzo[e]pyrazolo[4,3-c][1,2]thiazin-4(1H)-yl)-N′-(1-(5-methylfuran-2-yl)ethylidene)acetohydrazide]: the “anti-HIV-1 activity (in words)” value in the series on HIV-1 is “inactive”. For the same compound, the results for the IC50 at 5 day (in series [1]; in series [2]; in the series “in vitro”) were 53.8 µM, greater than 100 µM and 15.4 µM, respectively.
On to `CC(=NNC(=O)CN1c2c(-c3ccccc3)n[nH]c2-c2ccccc2S1(=O)=O)c1cc(C)oc1C` [5t, N′-(1-(2,5-dimethylfuran-3-yl)ethylidene)-2-(5,5-dioxido-3-phenylbenzo[e]pyrazolo[4,3-c][1,2]thiazin-4(1H)-yl)acetohydrazide], for which the half-inhibitory concentration (IC50) at 5 day in series [1] stood at 17.3 µM; in series [2], 41.4 µM; in the series “in vitro”, 9.9 µM.
The corresponding values for `CC(=NNC(=O)CN1c2c(-c3ccccc3)n[nH]c2-c2ccccc2S1(=O)=O)c1nccs1` [5u, 2-(5,5-Dioxido-3-phenylbenzo[e]pyrazolo[4,3-c][1,2]thiazin-4(1H)-yl)-N′-(1-(thiazol-2-yl)ethylidene)acetohydrazide] are 15.7 µM, 43.1 µM and 8.2 µM.
For `CC(=NNC(=O)CN1c2c(-c3ccccc3)n[nH]c2-c2ccccc2S1(=O)=O)c1ccncc1` [5v, 2-(5,5-Dioxido-3-phenylbenzo[e]pyrazolo[4,3-c][1,2]thiazin-4(1H)-yl)-N′-(1-(pyridin-4-yl)ethylidene)acetohydrazide], the “anti-HIV-1 activity (in words)” value in the series with HIV-1 was “inactive”. Besides, the IC50 at 5 day was 75.6 µM in series [1], 84.1 µM in series [2] and 34.5 µM in “in vitro”.
Regarding `O=C(CN1c2c(-c3ccccc3)n[nH]c2-c2ccccc2S1(=O)=O)NN=Cc1cccs1` [5w, 2-(5,5-Dioxido-3-phenylbenzo[e]pyrazolo[4,3-c][1,2]thiazin-4(1H)-yl)-N′-(thiophen-2-ylmethylene)acetohydrazide], the IC50 at 5 day in series [1] is 30.6 µM; in series [2], 41.8 µM; in the series “in vitro”, 13.9 µM. For the same compound, in the series on primary human PBM cells, the “toxicity in primary human PBM cells (in words)” value is reported as “no toxicity”. The “toxicity in VERO cells (in words)” value in the series on VERO cells is given as “no toxicity”.

Source of the values: publication PMC7732025 (Archives of pharmacal research, 2013).
